In US10105357B2, “Indication of antibiotic drugs for preparation of cancer inhibition pharmaceutical composition” (LAUNX BIOMEDICAL CO., LTD., priority 2014, dated 2018):
Read-outs that look alike come from different tables or passages of the source.

What was measured:
[1] = tested on: AGS (Gastric Adenocarcinoma); experiment: Cell viability analysis, gastric cancer AGS; type: cell-based, human; settings: Homo sapiens
[2] = tested on: A549 (Lung Adenocarcinoma); experiment: Cell viability analysis, lung cancer A549; type: cell-based, human; settings: Homo sapiens
[3] = tested on: LoVo (Colorectal Adenocarcinoma); experiment: Cell viability analysis, colon cancer LoVo; type: cell-based, human; settings: Homo sapiens, LoVo
[4] = tested on: HepG2 (Hepatocellular Carcinoma); experiment: Cell viability analysis, hepatic cancer HepG2; type: cell-based, human; settings: Homo sapiens
[5] = tested on: HCT116 (p53+) (Colorectal Carcinoma); experiment: cells; settings: Homo sapiens, HCT-116, 72 h, read-out: cell viability (survival rate), HCT116
[6] = tested on: HL-60 (Acute Promyelocytic Leukemia); experiment: Cell viability analysis, leukemia HL-60; type: cell-based, human; settings: Homo sapiens
[7] = tested on: TSGH-8301 (Urinary Bladder Carcinoma); experiment: Cell viability analysis, bladder cancer TSGH-8301; type: cell-based, human; settings: Homo sapiens
[8] = tested on: MKN-45 (Gastric Adenocarcinoma); experiment: Cell viability analysis, gastric cancer MKN-45; type: cell-based, human; settings: Homo sapiens, MKN-45, 72 h
[9] = tested on: HeLa (Cervix Adenocarcinoma); experiment: Cell viability analysis, cervical cancer HeLa; type: cell-based, human; settings: Homo sapiens, HeLa
[10] = tested on: HI650 (Lung Adenocarcinoma); experiment: Cell viability analysis, lung cancer HI650; type: cell-based, human; settings: Homo sapiens
[11] = tested on: MCF7 (Mammary Gland, Adenocarcinoma); experiment: Cell viability analysis, breast cancer MCF7; type: cell-based, human; settings: Homo sapiens
[12] = tested on: A375 (Amelanotic Melanoma); experiment: Cell viability analysis, skin cancer A375; type: cell-based, human; settings: Homo sapiens
[13] = tested on: PC3 (p53−) (Prostate Adenocarcinoma); experiment: Cell viability analysis, prostate cancer PC3; type: cell-based, human; settings: Homo sapiens
[14] = 72 h, read-out: cell viability (survival rate), LoVo, drug 10 μM, 72 hours, WST-1, OD450 nm
[15] = 72 h, read-out: cell viability (survival rate), AGS, drug 10 μM, 72 hours, WST-1, OD450 nm
[16] = A549, 72 h, read-out: cell viability (survival rate), A549, drug 10 μM, 72 hours, WST-1, OD450 nm
[17] = HepG2, 72 h, read-out: cell viability (survival rate), HepG2, drug 10 μM, 72 hours, WST-1, OD450 nm
[18] = HL-60, 72 h, read-out: cell viability (survival rate), HL-60, drug 10 μM, 72 hours, WST-1, OD450 nm
[19] = 72 h, read-out: cell viability (survival rate), TSGH, drug 10 μM, 72 hours, WST-1, OD450 nm
[20] = 72 h, read-out: cell viability (survival rate), HeLa, drug 10 μM, 72 hours, WST-1, OD450 nm
[21] = NCI-H1650, 72 h, read-out: cell viability (survival rate), H1650, drug 10 μM, 72 hours, WST-1, OD450 nm
[22] = MCF7, 72 h, read-out: cell viability (survival rate), MCF7, drug 10 μM, 72 hours, WST-1, OD450 nm
[23] = A-375, 72 h, read-out: cell viability (survival rate), A375, drug 10 μM, 72 hours, WST-1, OD450 nm
[24] = 72 h, read-out: cell viability (survival rate), PC3, drug 10 μM, 72 hours, WST-1, OD450 nm

Compound: COC(=O)N/N=C/c1c[n+]([O-])c2ccccc2[n+]1[O-] [Carbadox]
- viability at 10 µM ([1]; 72 h, drug 10 μM, 72 hours, WST-1, OD450 nm, read-out: cell viability (survival rate), AGS): 51.9%
- viability at 10 µM ([2]; A549, 72 h, drug 10 μM, 72 hours, WST-1, OD450 nm, read-out: cell viability (survival rate), A549): 24.8%
- viability at 10 µM [3, 14]: 54.4%
- viability at 10 µM ([4]; HepG2, 72 h, drug 10 μM, 72 hours, WST-1, OD450 nm, read-out: cell viability (survival rate), HepG2): 88.7%
- viability at 10 µM [5]: 72.8%
- viability at 10 µM ([6]; HL-60, 72 h, drug 10 μM, 72 hours, WST-1, OD450 nm, read-out: cell viability (survival rate), HL-60): 87%
- viability at 10 µM ([7]; 72 h, drug 10 μM, 72 hours, WST-1, OD450 nm, read-out: cell viability (survival rate), TSGH): 67.9%
- viability at 10 µM ([8]; drug 10 μM, 72 hours, WST-1, OD450 nm, read-out: cell viability (survival rate), MKN-45): 104%
- viability at 10 µM ([9]; 72 h, drug 10 μM, 72 hours, WST-1, OD450 nm, read-out: cell viability (survival rate), HeLa): 60%
- viability at 10 µM ([10]; NCI-H1650, 72 h, drug 10 μM, 72 hours, WST-1, OD450 nm, read-out: cell viability (survival rate), H1650): 56.9%
- viability at 10 µM ([11]; MCF7, 72 h, drug 10 μM, 72 hours, WST-1, OD450 nm, read-out: cell viability (survival rate), MCF7): 34.6%
- viability at 10 µM ([12]; A-375, 72 h, drug 10 μM, 72 hours, WST-1, OD450 nm, read-out: cell viability (survival rate), A375): 52.4%
- viability at 10 µM ([13]; 72 h, drug 10 μM, 72 hours, WST-1, OD450 nm, read-out: cell viability (survival rate), PC3): 52.5%

Compound: Cc1cc(O)ccc1Cl [Chlorocresol]
- viability at 10 µM ([1]; 72 h, read-out: cell viability (survival rate), AGS): 103%
- viability at 10 µM ([2]; A549, 72 h, read-out: cell viability (survival rate), A549): 80.1%
- viability at 10 µM ([3]; 72 h, read-out: cell viability (survival rate), LoVo): 62%
- viability at 10 µM ([4]; HepG2, 72 h, read-out: cell viability (survival rate), HepG2): 98.6%
- viability at 10 µM [5]: 61.7%
- viability at 10 µM ([6]; HL-60, 72 h, read-out: cell viability (survival rate), HL-60): 96.4%
- viability at 10 µM ([7]; 72 h, read-out: cell viability (survival rate), TSGH): 113%
- viability at 10 µM ([9]; 72 h, read-out: cell viability (survival rate), HeLa): 96.3%
- viability at 10 µM ([10]; NCI-H1650, 72 h, read-out: cell viability (survival rate), H1650): 91.5%
- viability at 10 µM ([11]; MCF7, 72 h, read-out: cell viability (survival rate), MCF7): 64.2%
- viability at 10 µM ([12]; A-375, 72 h, read-out: cell viability (survival rate), A375): 65.4%
- viability at 10 µM ([13]; 72 h, read-out: cell viability (survival rate), PC3): 130%

Compound: COC(=O)C1=CO[C@@H](O)[C@@H]2C(CO)=CC[C@H]12 [Genipin]
- viability at 10 µM [1, 15]: 49.6%
- viability at 10 µM [2, 16]: 61.8%
- viability at 10 µM [4, 17]: 87.1%
- viability at 10 µM [5]: 82.7%
- viability at 10 µM [6, 18]: 117%
- viability at 10 µM [7, 19]: 67.7%
- viability at 10 µM ([8]; read-out: cell viability (survival rate), MKN-45, drug 10 μM, 72 hours, WST-1, OD450 nm): 54.1%
- viability at 10 µM [9, 20]: 74.5%
- viability at 10 µM [10, 21]: 69.5%
- viability at 10 µM [11, 22]: 71.7%
- viability at 10 µM [12, 23]: 78%
- viability at 10 µM [13, 24]: 71.6%

Compound: CNC[C@H](O)[C@@H](O)[C@H](O)[C@H](O)CO [Meglumine]
- viability at 10 µM ([1]; drug 10 μM, 72 hours, WST-1, OD450 nm, read-out: cell viability (survival rate), AGS): 95%
- viability at 10 µM ([2]; A549, drug 10 μM, 72 hours, WST-1, OD450 nm, read-out: cell viability (survival rate), A549): 108%
- viability at 10 µM ([3]; drug 10 μM, 72 hours, WST-1, OD450 nm, read-out: cell viability (survival rate), LoVo): 78.4%
- viability at 10 µM ([4]; HepG2, drug 10 μM, 72 hours, WST-1, OD450 nm, read-out: cell viability (survival rate), HepG2): 90.8%
- viability at 10 µM [5]: 92.7%
- viability at 10 µM ([6]; HL-60, drug 10 μM, 72 hours, WST-1, OD450 nm, read-out: cell viability (survival rate), HL-60): 114%
- viability at 10 µM ([7]; drug 10 μM, 72 hours, WST-1, OD450 nm, read-out: cell viability (survival rate), TSGH): 109%
- viability at 10 µM ([9]; drug 10 μM, 72 hours, WST-1, OD450 nm, read-out: cell viability (survival rate), HeLa): 74.1%
- viability at 10 µM ([10]; NCI-H1650, drug 10 μM, 72 hours, WST-1, OD450 nm, read-out: cell viability (survival rate), H1650): 62%
- viability at 10 µM ([11]; MCF7, drug 10 μM, 72 hours, WST-1, OD450 nm, read-out: cell viability (survival rate), MCF7): 97%
- viability at 10 µM ([12]; A-375, drug 10 μM, 72 hours, WST-1, OD450 nm, read-out: cell viability (survival rate), A375): 78.2%
- viability at 10 µM ([13]; drug 10 μM, 72 hours, WST-1, OD450 nm, read-out: cell viability (survival rate), PC3): 76.8%

Compound: O=c1cc[nH]c(=O)[nH]1 [Uracil]
- viability at 10 µM [1, 15]: 82.9%
- viability at 10 µM [2, 16]: 80.5%
- viability at 10 µM [3, 14]: 70.2%
- viability at 10 µM [4, 17]: 100%
- viability at 10 µM [5]: 94.3%
- viability at 10 µM [6, 18]: 98.7%
- viability at 10 µM [7, 19]: 104%
- viability at 10 µM [9, 20]: 107%
- viability at 10 µM [10, 21]: 91.8%
- viability at 10 µM [11, 22]: 103%
- viability at 10 µM [12, 23]: 98.2%
- viability at 10 µM [13, 24]: 163%
